Test results as given in PMC6934184, “Selective DNA-PKcs inhibition extends the therapeutic index of localized radiotherapy and chemotherapy” (The Journal of Clinical Investigation, 2019).

Target: T1, PIM1 (Homo sapiens, UniProt P11309)
T1 construct: purchased Thermo Fisher Scientific (Life Technologies) SelectScreen
Test: SelectScreen Z'LYTE
Assay type: biochemical
Method in brief: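 SelectScreen broad panel; activity (Z'LYTE, Adapta) plus binding formats. ATP: Km app for CSF1R Z'LYTE; 10 for CAMK1 Adapta. Readout = % per kinase.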

T1 sequence (P11309 whole entry): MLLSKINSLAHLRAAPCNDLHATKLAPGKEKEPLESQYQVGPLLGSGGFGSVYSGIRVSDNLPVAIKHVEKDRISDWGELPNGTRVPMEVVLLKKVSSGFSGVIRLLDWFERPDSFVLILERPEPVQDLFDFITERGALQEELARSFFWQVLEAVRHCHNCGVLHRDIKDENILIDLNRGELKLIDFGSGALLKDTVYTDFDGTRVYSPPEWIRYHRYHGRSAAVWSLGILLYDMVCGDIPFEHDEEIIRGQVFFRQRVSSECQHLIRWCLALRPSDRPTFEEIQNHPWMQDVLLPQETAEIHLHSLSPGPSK

`CN(C(=O)CN1CCOCC1)c1ccc2sc3c(-c4cccc5c(=O)cc(N6CC7CCC(C6)O7)oc45)cccc3c2c1` [NU5455] was tested, and the inhibition at 1 µM was -1%.
